Here are results for 2 compounds from patent US10076576B2, “Minimally toxic prodrugs” (priority 2012, dated 2018).

Data set [1] concerns Cor.At® cells (mouse embryonic stem cell derived cardiomyocytes). In words: In vitro cytotoxicity on Cor.At cardiomyocytes (neutral red uptake). The format is cell-based. The note with it: 48 h. As to the method:
FIG. 5. In vitro cellular toxicity of PhAc-ALGP-Dox and Doxorubicin on Cor.At® cells (mouse embryonic stem cell derived cardiomyocytes). As non-specific control, the test was also performed on inactivated mouse embryonic fibroblasts (MEF). Cells were cultured for 48 h in the presence of drugs and a neutral red uptake test was performed to determine cell viability. Results represent the cytotoxicity curves. The IC50 values were calculated from the cytotoxicity curves using the Prism GraphPad software 5.0.
The in vitro cardiotoxicity test was carried out in a relevant and predictive in vitro model for cardiac safety screening in early lead optimization using mouse embryonic stem cell derived cardiomyocytes (Cor.At®, Axiogenesis (Germany)). Cor.At® cardiomyocytes provide a standardized, homogenous and reproducible cell system for the in vitro classification of a compound's cardio-cytotoxic potential. After incubation with test compounds, the neutral red uptake test was used to determine effects which directly affect the viability and integrity of cardiac cells when compared to a non-specific reference cell type, e.g. mouse fibroblasts (MEF).

Data set [2] concerns LoVo colon carcinoma human xenografts. The data set can be described thus: Efficacy after repeated ip injections (2Q1D5), LoVo xenograft. The format is in vivo, NMRI nude mice. The note with it: for TGD: 190 to 1,000 mm^3. As to the method: FIG. 9. Efficacy study of PhAc-ALGP-Dox in comparison with free Doxorubicin in NMRI nude mice bearing LoVo colon carcinoma human xenografts. Drugs or controls were administered by the i.p. route twice a day for five consecutive days (arrows). The mice receiving a constant volume (10 μL/g) of either saline (-●-) or of the different dosing solutions: PhAc-ALGP-Dox 25 μmol/kg (*), 35 μmol/kg (◯) and 50 μmol/kg (+); Dox 0.5 μmol/kg (▪), 1 μmol/kg (▴) and 2 μmol/kg (×).
(§1) The efficacy of PhAc-ALGP-Dox was assessed using athymic mice (nude/nude NMRI) carrying ectopic xenograft of human LoVo colon carcinoma or of MX-1 mammary carcinoma in comparison with free Doxorubicin. Tumors were established by a subcutaneous implantation of cells (10^7 cells) in the right flank of 6 weeks old female NMRI nude mice (Harlan). Treatments were administered when the tumors reached a size of 150-200 mm^3 (measured using a caliper and calculated with the following formula: […]). Animals were randomly assigned to groups of 4 to-6 animals. […] Compounds were delivered by bolus intraperitoneal injection (ip) at 10 μl/g. During the course of the experiment, clinical signs, body weight and tumor volume were controlled twice a week. Results are presented as the evolution of mean tumor volume as a function of time. Optimal T/C (ratio of mean tumor volume of treated versus control mice) values and TGD (tumor growth delay in reaching 1000 mm^3) were used as a measure of treatment efficacy. […] A statistical analysis was performed at day 22 using the Mann Whitney t test of the Graph Pad Prism 5.0 software.

For data set [3] the test system is unchanged. In words: Efficacy, similar study, ip 2Q1D5×2W (Table 9). On the procedure: as §1
Data set [4] has as its system B16-F10 murine melanoma cells. The format is in vivo, C57BL6 mice. On the procedure: FIG. 11. Evaluation of PhAc-ALGP-Dox efficacy in comparison with Doxorubicin in the B16-F10 lung metastatic melanoma model. Graph on the left side represents quantification of melanin of lung metastasis at day 14 after injection of B16F10 tumor cells. Graph on the right side show the survival curves.
The efficacy of PhAc-ALGP-Dox was tested in the well described B16-F10 lung metastatic melanoma model. For that purpose, […] B16-F10 murine melanoma cells were injected in the lateral vein of C57BL6 mice. Treatments started three days after cells injection. Animal received twice a day (at 5-6 h interval) for 5 consecutive days intraperitoneal injections (total 10 injections/mouse) of saline or of Doxorubicin at 2 and 3.5 μmol/kg or of PhAc-ALGP-Dox at 50 μmol/kg. Five mice per group were sacrificed at day 14 after cells injection. Lungs were collected and processed for melanin quantification (Molecular Pharmacology, 74: 1576-1586, 2008). Survival was determined by observation of the remaining mice.

Data set [5] has as its system orthotopic HCT116 human colon tumors. The data set can be described thus: Orthotopic HCT116 colon carcinoma tumor model. The format is in vivo, SCID mice. On the procedure: FIG. 14. Evaluation of the antitumor effect of PhAc-ALGP-dox in SCID mice bearing orthotopic HCT116 human colon tumors. SCID mice were injected orthotopically (in the caecum) with human HCT116 colon tumor cells. One group was treated with saline while groups 2 and 3 received 10 intraperitoneal injections (2Q1D5) of 35 and 50 μmol/kg of PhAc-ALGP-doxorubicin. Primary tumor weights were recorded on day 34 post cell inoculation.
FIG. 15. Evaluation of the antimetastatic effect (in liver) of PhAc-ALGP-dox in SCID mice bearing orthotopic HCT116 human colon tumors. SCID mice were injected orthotopically (in the caecum) with human HCT116 colon tumor cells. One group was treated with saline while groups 2 and 3 received 10 intraperitoneal injections (2Q1D5) of 35 and 50 μmol/kg of PhAc-ALGP-doxorubicin. Liver metastases were recorded on day 34 post cell inoculation.
HCT116 cells were subcutaneously injected into SCID mice. Once xenografts were established, they were excised and orthotopically implanted into the ceacum of other female γ-irradiated SCID mice using microsurgical techniques. On day 12 after the cancer cells injection, the mice were randomized in four groups of 16. […] On day 34 after injection into the caecum of colonic cancer cells the animals were sacrificed, the number of metastases was counted macroscopically and the primary tumors weighted.

Where “and” joins values, the source holds several entries; their conditions need not be identical. Identical values can stand only once. Like-named read-outs stand apart in the source and are kept apart here.

`COc1cccc2c1C(=O)c1c(O)c3c(c(O)c1C2=O)C[C@@](O)(C(=O)CO)C[C@@H]3O[C@H]1C[C@H](N)[C@H](O)[C@H](C)O1` [Doxorubicin, reference compound]: the “viability of Cor.At cardiomyocytes” value in data set [1] (0.2 μg/ml) was found to be 67%. Moreover, the “toxic effect on Cor.At cardiomyocytes (in words)” value in data set [1] (20 μg/ml and 2 μg/ml) is “severe toxic effect”. Further, the “TGD” value in data set [2] (0.5 μmol/kg ip 2Q1D5) is given as 1 days; in data set [2] (1 μmol/kg ip 2Q1D5), 0 days; in data set [2] (2 μmol/kg ip 2Q1D5) it was 6 days; in data set [3] (1 μmol/kg ip 2Q1D5×2W), 5 days; in data set [3] (1.5 μmol/kg ip 2Q1D5×2W) it was 9 days. The “TGI [% (day)]” value in data set [2] (1 μmol/kg ip 2Q1D5) was “no antitumor activity and no”; in data set [2] (2 μmol/kg ip 2Q1D5, day 22, listed as Dox) it was 45%; in data set [3] (1 μmol/kg ip 2Q1D5×2W, day 29) it was 44(29), %; in data set [3] (1.5 μmol/kg ip 2Q1D5×2W, day 29, n = 1), 65(29), %. For the same compound, the mortality result in data set [3] (1 μmol/kg ip 2Q1D5×2W) is listed as “one dead mouse was found at day 29”; in data set [5] (2 μmol/kg ip 2Q1D5, SCID mice), “all animals died within 10 days”. Moreover, the results for the median survival in data set [4] (2 μmol/kg ip 2Q1D5) and in data set [4] (3.5 μmol/kg ip 2Q1D5) were 24 days and 28 days, respectively. In addition, the “amount of melanin in lung homogenate” value in data set [4] (2 μmol/kg ip 2Q1D5, day 14) is 183 mg/mL; in data set [4] (3.5 μmol/kg ip 2Q1D5, day 14) it was 53 mg/mL.

As to `COc1cccc2c1C(=O)c1c(O)c3c(c(O)c1C2=O)CC(O)(C(=O)CO)CC3OC1CC(NC(=O)C2CCCN2C(=O)CNC(=O)C(CC(C)C)NC(=O)C(C)NC(=O)CP(=O)(O)O)C(O)C(C)O1` (stereo not drawn) [PhAc-ALGP-Dox, PhAc-ALGP-doxorubicin], in data set [1] (all concentrations lower than 20 μg/ml), the “toxic effect (in words)” value is reported as “did not show any toxic effect”. The “TGD” value in data set [2] (25 μmol/kg ip 2Q1D5) is recorded as 5 days; in data set [2] (35 μmol/kg ip 2Q1D5), 13 days; in data set [2] (50 μmol/kg ip 2Q1D5), 17 days; in data set [3] (25 μmol/kg ip 2Q1D5×2W), 9 days; in data set [3] (35 μmol/kg ip 2Q1D5×2W), 9 days; in data set [3] (50 μmol/kg ip 2Q1D5×2W), 22 days. For the same compound, the “TGI [% (day)]” value in data set [2] (25 μmol/kg ip 2Q1D5, day 22) is 32 (22) %; in data set [2] (35 μmol/kg ip 2Q1D5, day 22), 60 (22) %; in data set [2] (50 μmol/kg ip 2Q1D5, day 22), 65% and 65 (22) %; in data set [3] (25 μmol/kg ip 2Q1D5×2W, day 29), 54(29), %; in data set [3] (35 μmol/kg ip 2Q1D5×2W, day 29), 53(29), %; in data set [3] (50 μmol/kg ip 2Q1D5×2W, day 29), 73% and 73(29), %. The “maximum body weight loss” value in data set [3] (50 μmol/kg ip 2Q1D5×2W, day 9) is recorded as 13%. Also, the median survival in data set [4] (50 μmol/kg ip 2Q1D5) is 36 days. Also, the “amount of melanin in lung homogenate” value in data set [4] (50 μmol/kg ip 2Q1D5, day 14) came to 16 mg/mL. In addition, the “number of hepatic metastases” value in data set [5] (30 μmol/kg, day 34) amounted to 24. Besides, the primary tumor weight in data set [5] (30 μmol/kg, day 34) came out at 0.69 g; in data set [5] (50 μmol/kg, day 34), 0.44 g. Besides, the “mice surviving 34 days” value came to 12 mice in data set [5] (35 μmol/kg ip 2Q1D5, groups of 16) and 9 mice in data set [5] (50 μmol/kg ip 2Q1D5, groups of 16). Further, the “mean number of hepatic metastases” value in data set [5] (50 μmol/kg, day 34) came out at 1.78.
